From PubChem BioAssay (NCI)
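Five compound concentrations were applied to cells in 96-well plates for 48 hours; endpoints were derived by simple linear interpolation of the resulting dose-response curve. At the GI50, growth is halved. TGI denotes the concentration required for complete inhibition of growth.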

What was measured:
Assay in all cases: growth of human tumour cells (NCI), 48 h
MALME-3M melanoma = test system: MALME-3M melanoma
HCT-116 colon = test system: HCT-116 colon
NCI-H522 lung = test system: NCI-H522 lung
SK-MEL-2 melanoma = test system: SK-MEL-2 melanoma
SK-OV-3 ovarian = test system: SK-OV-3 ovarian
HOP-62 NSCLC = test system: HOP-62 NSCLC
SW-620 colon = test system: SW-620 colon
SK-MEL-5 melanoma = test system: SK-MEL-5 melanoma
SK-MEL-28 melanoma = test system: SK-MEL-28 melanoma
T-47D breast = test system: T-47D breast

SMILES | TGI (MALME-3M melanoma) | TGI (HCT-116 colon) | TGI (NCI-H522 lung) | TGI (SK-MEL-2 melanoma) | TGI (SK-OV-3 ovarian) | TGI (HOP-62 NSCLC) | TGI (SW-620 colon) | TGI (SK-MEL-5 melanoma) | TGI (SK-MEL-28 melanoma) | TGI (T-47D breast) | GI50 (MALME-3M melanoma) | GI50 (SK-MEL-5 melanoma) | GI50 (HCT-116 colon) | GI50 (NCI-H522 lung) | GI50 (HOP-62 NSCLC) | GI50 (SK-MEL-28 melanoma) | GI50 (T-47D breast) | GI50 (SK-MEL-2 melanoma) | GI50 (SK-OV-3 ovarian) | GI50 (SW-620 colon)
C[n+]1c2ccccc2c(CNC(CS)C(=O)O)c2ccccc21 (centres undefined) | 92.1 µM | 37.8 µM | 34.8 µM | 76.8 µM | 56.8 µM | 39.1 µM | > 100 µM |  |  |  |  |  |  |  |  |  |  |  |  | 
Cc1[nH]n(-c2ccccc2)c(=O)c1C(N(CCc1ccccc1)C1=NCC(C)S1)(C(F)(F)F)C(F)(F)F (centres undefined) | 97.9 µM | 23.8 µM | 28.2 µM | 22.4 µM | 95.1 µM | 87.6 µM | 95.3 µM | 21.5 µM | 51.2 µM | 43.1 µM |  |  |  |  |  |  |  |  |  | 
Oc1ccc(-c2nc3cc(F)ccc3s2)cc1 | 43.3 µM | 42.1 µM | 30.7 µM | 36.9 µM | 50.7 µM | 63 µM | > 100 µM | 41.6 µM | 42.8 µM | 33.7 µM |  |  |  |  |  |  |  |  |  | 
COC(=O)/C=C1\CCCN1CCc1cc2c(cc1CC#N)OCO2 | > 100 µM | > 100 µM | > 100 µM | > 100 µM | > 100 µM | > 100 µM | > 100 µM | 81.2 µM | > 100 µM | > 100 µM |  |  |  |  |  |  |  |  |  | 
CCOP(=O)(OCC)C(Nc1cccc(F)c1)c1ccc(N(C)C)cc1 (centres undefined) | > 100 µM | > 100 µM | > 100 µM | > 100 µM | > 100 µM | > 100 µM | > 100 µM | > 100 µM | > 100 µM | > 100 µM |  |  |  |  |  |  |  |  |  | 
CC1C(=O)C(C)C(c2ccco2)N(N=O)C1c1ccco1 (centres undefined) | > 100 µM | > 100 µM | > 100 µM | > 100 µM | > 100 µM | > 100 µM | > 100 µM | > 100 µM | > 100 µM |  |  |  |  |  |  |  |  |  |  | 
CN(C)c1ccc(/C=c2/c3ccccc3n3c2cc(NC(=O)NCCC[N+](C)(C)C)[n+]3C)cc1 | > 100 µM | > 100 µM | > 100 µM | > 100 µM | > 100 µM | > 100 µM | > 100 µM | > 100 µM | > 100 µM | > 100 µM |  |  |  |  |  |  |  |  |  | 
N=c1oc2ccc(Cl)cc2cc1C(N)=O | 37.1 µM | 61.7 µM |  | 31.8 µM | > 100 µM |  | > 100 µM | 47 µM | > 100 µM | 94.6 µM |  |  |  |  |  |  |  |  |  | 
O=C(CSc1nc2ccc(I)cc2c(=O)n1Cc1ccccc1)NN1C(=O)c2ccccc2C1=O | 62.8 µM | > 100 µM | 34.1 µM | 28.4 µM | 29.1 µM | 24 µM | > 100 µM | 68.6 µM | 49.9 µM | 50 µM |  |  |  |  |  |  |  |  |  | 
COc1cc([N+](=O)[O-])ccc1N1C(=O)C2c3[nH]c4ccccc4c3C3CCC(C(C)(C)C)CC3C2C1=O (centres undefined) | > 100 µM | > 100 µM | > 100 µM | > 100 µM | > 100 µM | 81.2 µM | > 100 µM | > 100 µM | 34.7 µM |  |  |  |  |  |  |  |  |  |  | 
CSc1ccc(/C=C2\N=C(c3ccccc3)N(/N=C3\C(=O)Nc4ccccc43)C2=O)cc1 | > 100 µM | > 100 µM | > 100 µM | > 100 µM | > 100 µM | > 100 µM | > 100 µM | > 100 µM | > 100 µM | > 100 µM |  |  |  |  |  |  |  |  |  | 
Nc1nnc2oc3ccc4ccccc4c3cc1-2 | 89.8 µM | > 100 µM | > 100 µM | 72.5 µM | > 100 µM | > 100 µM | > 100 µM | > 100 µM | > 100 µM | 65.4 µM |  |  |  |  |  |  |  |  |  | 
CCc1ccc2c(c1)C(=O)c1c-2n(CCCN)c(=O)c2cc([N+](=O)[O-])ccc12 | 2.8 µM | 1.89 µM | 2.7 µM |  |  | 2.78 µM |  | 3.12 µM | 3.2 µM | 2.91 µM | 1.42 µM | 1.6 µM | 0.573 µM | 1.23 µM | 1.37 µM | 1.68 µM | 1.28 µM |  |  | 
N#C/C(C(=O)Nc1ccc(Cl)cc1)=C(/N)N1CCOCC1 |  | > 100 µM |  | > 100 µM | > 100 µM | > 100 µM | > 100 µM | > 100 µM | > 100 µM | > 100 µM |  |  |  |  |  |  |  |  |  | 
COC(=O)NC1C(C)OC(OC2C/C=C(/C)C3C=CC4C(OC5CC(OC6CC(OC7CC(O)C(O)C(C)O7)C(OC7CC(O)C(OC)C(C)O7)C(C)O6)C(O)C(C)O5)C(C)CC(C)C4C3(C)/C(O)=C3\C(=O)OC4(CC(C)C(CO)=CC4/C=C\2C)C3=O)CC1(C)[N+](=O)[O-] (centres undefined) |  | 3.09 µM | 49.4 µM | 87.2 µM |  | 37.8 µM | > 100 µM | > 100 µM | 81.3 µM | 25 µM |  |  |  |  |  |  |  |  |  | 
CC1(O)COCCCCOc2c(CN)cccc2NC(=O)c2nc(cnc2N)-c2ccc(cc2)S(=O)(=O)C(C)(C)C1 (centres undefined) | 3.43 µM | 1.12 µM |  | 3.36 µM | 2.8 µM | 3.17 µM | 1.98 µM | 2.56 µM | 3.47 µM | 3.27 µM | 1.77 µM | 1.25 µM | 0.129 µM |  | 1.26 µM | 1.83 µM | 1.44 µM | 1.74 µM | 1.37 µM | 0.42 µM
c1c2c(cc3c1OCO3)-c1cc3ccc4c(c3c[n+]1CC2)OCO4 | 3.04 µM | > 5.82 µM | 1.8 µM | > 12.5 µM | > 12.5 µM | > 12.5 µM | > 12.5 µM | > 5 µM | > 12.5 µM | > 12.5 µM |  |  |  |  |  |  |  |  |  | 
COC(=O)c1ccccc1C1=C([N+](=O)[O-])C(c2cccc(Br)c2)C(C#N)=C(N)O1 (centres undefined) |  | 92.9 µM | 29.2 µM | > 100 µM | > 100 µM | > 100 µM | 71.4 µM | > 100 µM | > 100 µM | 84.6 µM |  |  |  |  |  |  |  |  |  | 
COc1ccc(/C=C2\N=C(c3ccccc3)OC2=O)cc1OC(C)=O | 68.6 µM | > 100 µM |  | 83.5 µM | > 100 µM | > 100 µM | > 100 µM | > 100 µM | > 100 µM | > 100 µM |  |  |  |  |  |  |  |  |  | 
